Laboratory results taken from patent US11759451B2, “Therapeutic potential of glycopyrrolate and mexiletine for nervous system injury” (City University of Hong Kong, priority 2020, dated 2023).
Entries after “also recorded” stand apart in the source; their conditions may differ.

Experiments:
[1] = system: sciatic nerve crush injury; details: 72 hours after crush; for increase in number of GAP43-positive regenerating axons: i.p. glycopyrrolate 2 mg/kg or mexiletine 10 mg/kg for 3 days, 4 mm distal to the crushed site, n=3 per group; for GAP-43-positive regenerating axonal fibres at 4 mm distal to the crushed site, in words: i.p. glycopyrrolate 2 mg/kg or mexiletine 10 mg/kg
Protocol: (§1) (A) Experimental paradigm for sciatic nerve pinch test. Sciatic nerve crush injury was performed on the left sciatic nerve of adult male C57BL/6 mice. We performed nerve pinch test in adult mice injected intraperitoneally with glycopyrrolate (2 mg/kg) or mexiletine (10 mg/kg) for 3 consecutive days after injury. […] Scale bar: 100 μm. Mean±SEM; *P<0.05, Student's t-test.
(§2) In the current project, a sciatic nerve crush injury was used as an in vivo animal model for peripheral nerve injury. Adult male C57BL/6 mice (8-12 weeks old) were used for all experiments. All mouse husbandry and euthanasia were in compliance with the Institutional Animal Care and Use Committee (IACUC) guidelines. Surgical procedures performed were in accordance with protocols approved by the City University of Hong Kong Animal Research Ethics Sub-Committee and Department of Health, Hong Kong SAR. Under anesthesia, the left sciatic nerve was exposed, and crushed with 5/45 smooth forceps (Fine Science Tools) for 15 seconds at the level of external rotator muscles, distal to the sciatic notch after separation from the surrounding connective tissue (FIG. 2).
(§3) Glycopyrrolate or mexiletine was first dissolved in 0.9% saline, and injected intraperitoneally immediately after sciatic nerve crush injury for 3 consecutive days at 2 mg/kg and 10 mg/kg, respectively (FIGS. 3A and B).
(§4) The extent of axon regeneration was evaluated using sciatic nerve pinch test, and verified by quantifications of GAP-43-positive regenerating axonal fibres 72 hours after sciatic nerve crush injury.

[2] = system: sciatic nerve crush injury; assay: sciatic nerve pinch test after sciatic nerve crush injury; assay type: in vivo, adult male C57BL/6 mice; details: for increase of the most distal axonal regrowth (sciatic nerve pinch test): i.p. glycopyrrolate 2 mg/kg or mexiletine 10 mg/kg for 3 consecutive days after injury, 72 hours after crush, n=5-6 per group; for in vivo axon regeneration after sciatic nerve crush injury (pinch test), in words: i.p. glycopyrrolate 2 mg/kg or mexiletine 10 mg/kg, 3 days after injury
Protocol: as §1, §2, §3, §4
Sciatic nerve pinch test was performed on the ipsilateral nerves 72 hours after sciatic nerve crush injury. The left sciatic nerve was first exposed to mid-thigh level under deep anaesthesia (i.e. 2.5% isoflurane). Under light anaesthesia (i.e. 1% isoflurane), a series of pinches were applied from the most distal part of the nerve (i.e. trifurcation), moving proximally towards the crushed site using smooth forceps (Fine Science Tools). The distance (in mm) representing the extent of axonal regrowth was recorded from the crushed site to the most distal point of the nerve where initial withdrawal response was observed after pinching (FIGS. 4A and C).

[3] = system: axotomized dorsal root ganglion (DRG) neurons; assay: neurite outgrowth assay in primary cultures of axotomized DRG neurons; assay type: cell-based, adult C57BL/6 mice; details: vs 0.1% DMSO solvent control; for average total neurite length (neurite outgrowth): glycopyrrolate 5, 10 and 100 μM or mexiletine 10, 50 and 100 μM added 1 h after plating, 17 h growth; for cell survival of DRG neurons: same cultures, 17 h
Protocol: Primary cultures of DRG neurons were prepared from adult C57BL/6 mice, and plated onto a poly-D-lysine and laminin-coated 8-well chamber. Glycopyrrolate and mexiletine were added into the cultured DRG neurons at various concentrations as indicated one hour after plating. 0.1% DMSO served as solvent control. The cultures were allowed to grow for 17 h. After fixation, the DRG neurons were immunostained with anti-βIII-tubulin primary antibodies highlighting the cell bodies of DRG neurons and their adjacent neurites for neurite outgrowth assay. (A) Average total neurite length was quantified using automated WIS-NeuroMath 5 software. […] Scale bar: 500 μm.
In the current study, the intrinsic growth capacity of peripheral neurons was first assessed, which is a critical determinant for successful axon regeneration after injury, after treating the neurons with glycopyrrolate and mexiletine. Primary culture of adult dorsal root ganglion (DRG) neurons is a widely used in vitro models to assess cues that could promote axonal outgrowth. Primary DRG neurons were prepared from adult C57BL/6 mice (8-12 weeks old). DRG neurons were dissected out, mildly digested with a solution of collagenase and dispase II (Roche Diagnostics), trypsinized and mechanically dissociated into single cell suspension using flame-polished Pasteur pipettes with three different diameters. Two thousand DRG neurons were plated onto an 8-well chamber slide pre-coated with poly-D-lysine and laminin (Sigma Aldrich), and cultured in full Neurobasal medium (Gibco) supplemented with B27, 200 mM L-glutamine, penicillin-streptomycin, 50 ng/ml NGF (Gibco), 10 μM Ara-C and 2 ng/ml GDNF (Gibco). Glycopyrrolate (5, 10 and 100 μM) or mexiletine (10, 50 and 100 μM) was added into the cultured neurons 1 hour after plating, and the cultures were allowed to grow for 17 hours.
After 17 hours of incubation, the cultures were fixed with 4% paraformaldehyde (PFA), blocked with 0.5% bovine serum albumin (BSA)/0.1% Triton X-100 in PBS for 1 hour at room temperature, and incubated with anti-β III-tubulin primary antibodies (1:800, Sigma Aldrich) for overnight at 4° C. After washing with PBS, the cultures were incubated with Alexa Fluor 488-conjugated secondary antibodies (1:300, Molecular Probes) for 1 hour at room temperature. To assess the neurite outgrowth of axtomized DRG neurons after treatment of glycopyrrolate or mexiletine, 30 non-overlapping images were taken at 10× magnifications using Nikon Ni-E microscope equipped with a motorized stage. Total neurite length of individual DRG neurons from each treatment condition were measured by automated WIS-NeuroMath software (Weizmann Institute of Science). The total neurite length of the neurons was averaged from at least 250 neurons per condition. […]

M1-M3 mAChRs = details: background description of the drug; cited from earlier work

Structure (SMILES) | increase in number of GAP43-positive regenerating axons [1] | GAP-43-positive regenerating axonal fibres at 4 mm distal to the crushed site, in words [1] | increase of the most distal axonal regrowth (sciatic nerve pinch test) [2] | in vivo axon regeneration after sciatic nerve crush injury (pinch test), in words [2] | average total neurite length (neurite outgrowth) [3] | cell survival of DRG neurons [3] | selectivity among mAChR subtypes (M1-M3 mAChRs)
C[N+]1(C)CCC(OC(=O)C(O)(c2ccccc2)C2CCCC2)C1 (stereo not shown) [glycopyrrolate] | 73% | More GAP-43-positive regenerating axonal fiber were observed | 61% | markedly accelerated in vivo axon regeneration; also recorded: significantly enhanced axon regeneration | induced robust neurite extension; also recorded: induce substantial neurite outgrowth | did not exhibit any effects on cell survival; also recorded: without exerting any neuronal survival effects | no selectivity to M1-M3 mAChRs
Cc1cccc(C)c1OCC(C)N (stereo not shown) [mexiletine] | 67% | More GAP-43-positive regenerating axonal fiber were observed | 59% | markedly accelerated in vivo axon regeneration; also recorded: significantly enhanced axon regeneration | induced robust neurite extension; also recorded: induce substantial neurite outgrowth | did not exhibit any effects on cell survival; also recorded: without exerting any neuronal survival effects | –
